From patent US9359298B2, “Cajanine structure analogous compound, preparation method and use” (INSTITUTE OF MEDICINAL BIOTECHNOLOGY, CHINESE ACADEMY OF …, priority 2011, dated 2016)
≈ marks a conversion by molar mass, not a printed value. Read-outs that look alike come from different tables or passages of the source.

How the values were obtained:
Assay type in all cases: cell-based
[1] = test system: Influenza A virus (hanfang359/95); test: Determination of anti-influenza virus activity (CPE in MDCK cells); settings: for IC50: Influenza A virus, MDCK, 36 h; for anti-influenza virus activities compared with the lead compound cajanine: statement in words
[2] = test system: Coxsackie virus B6; test: Coxsackie virus activity assay (CPE in Vero cells); settings: Vero
[3] = test system: HCV; test: Anti-hepatitis C virus (HCV) activity assay (HCV RNA in Huh7.5 cells); settings: for EC50: Hepatitis C virus, Huh7.5, 72 h, read-out: HCV EC50; for anti-HCV viral activity: statement in words
Description: Inoculate Huh7.5 cells into 96-well plates to a density of 3×10^4 cells/cm^2, culture for 24h, infect the cells with 45 IU/cell HCV supernatant, meanwhile, add drug solutions or solvent control for treatment.

[4] = test system: HIV-1 III B virus; test: Anti-HIV activity assay (P24 antigen in MT-4 cells); settings: for IC50: Human immunodeficiency virus 1, MT4, 96 h, read-out: HIV IC50; for anti-HIV viral activity: statement in words
[5] = test system: PC12 cells; test: Neuroprotective activity assay, serum-deprived injury to PC12 cells (MTT); settings: for viability at 10 µM: Rattus norvegicus, PC-12, 48 h, read-out: serum-deprived (surviving PC12 cells, MTT 570 nm); for protective effect on serum-deprived injury to PC12 cells: statement in words
Procedure, shortened: (§1)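 PC12 cells on poly-lysine plated 24 h, then injured 48 h by serum-free DMEM or 4 μM rotenone with 10 μM test compound present during injury. Viability read by MTT (4 h), absorbance 570 nm.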

[6] = test system: PC12 cells; test: Neuroprotective activity assay, rotenone injury to PC12 cells (MTT); settings: for viability at 10 µM: Rattus norvegicus, PC-12, 48 h, read-out: rotenone (surviving PC12 cells, MTT 570 nm); for protective effect on rotenone injury to PC12 cells: statement in words
Procedure, shortened: as §1

[7] = read-out: COX-B6 IC50, Vero cells, about 100TCID50, CPE, Reed-Muench
[8] = Huh7.5 cells, 72 h, HCV RNA by RT-PCR, Reed-Muench
[9] = MT-4 cells, HIV-1 III B 100TCID50, 96 h, P24 antigen
[10] = 10 μM test compound, 48 h, Control 100.0 ± 9.2, Model 69.3 ± 4.1
[11] = 10 μM test compound, 4 μM rotenone, 48 h, Control 100.0 ± 8.9, Model 73.2 ± 7.8

Row | SMILES | IC50 [1] | IC50 [2, 7] | EC50 [3, 8] | IC50 [4, 9] | viability at 10 µM [5, 10] | protective effect on serum-deprived injury to PC12 cells [5] | viability at 10 µM [6, 11] | protective effect on rotenone injury to PC12 cells [6] | anti-HCV viral activity [3] | anti-HIV viral activity [4] | anti-influenza virus activities compared with the lead compound cajanine [1] | IC50 ([2]; read-out: COX-B6 IC50) | EC50 [3] | IC50 [4] | viability at 10 µM [5] | viability at 10 µM [6]
1 | COC(=O)c1c(/C=C/C2CCCCC2)cc(OC)c(CC=C(C)C)c1O [Compound 8p, methyl 2-hydroxy-3-isopentenyl-4-methoxy-6-[(E)-2-cyclohexyl-vinyl]benzoate] | 10.3 µg/mL (≈ 28.9 µM) | > 2.06 µg/mL | 11.4 µg/mL (≈ 31.7 µM) | 21.1 µg/mL (≈ 58.9 µM) | 82.3 ± 5.6% | the strongest activities | 84.6 ± 5.9% | the strongest activities |  |  |  |  |  |  |  | 
2 | COC(=O)c1c(/C=C/c2ccc(OC(C)=O)cc2)cc(OC)c(CC=C(C)C)c1O [Compound 8q, methyl 2-hydroxy-3-isopentenyl-4′-methoxy-6-[(E)-4-acetoxystyryl]benzoate] | 8.23 µg/mL (≈ 20.1 µM) | 5.23 µg/mL (≈ 12.7 µM) | 7.63 µg/mL (≈ 18.6 µM) | 2.1 µg/mL (≈ 5.12 µM) | 79.8 ± 5.8% | the strongest activities | 80.5 ± 6.5% | the strongest activities |  |  |  |  |  |  |  | 
3 | COC(=O)c1c(/C=C/c2ccncc2)cc(OC)c(CC=C(C)C)c1O [Compound 8r] | 4.65 µg/mL (≈ 13.2 µM) | 6.43 µg/mL (≈ 18.2 µM) | 3.14 µg/mL (≈ 8.88 µM) | 4.01 µg/mL (≈ 11.3 µM) | 74.5 ± 5.7% |  | 69.8 ± 8.4% |  |  |  |  |  |  |  |  | 
4 | COC(=O)/C(=C\c1cc(OC)c(CC=C(C)C)c(O)c1C(=O)OC)c1ccccc1 [Compound 8s] | 0.24 µg/mL (≈ 0.585 µM) | 3.52 µg/mL (≈ 8.58 µM) | 0.84 µg/mL (≈ 2.05 µM) | 0.52 µg/mL (≈ 1.27 µM) | 79.8 ± 5.2% |  | 76.8 ± 5.4% |  | stronger anti-HIV, HCV viral activities | stronger anti-HIV, HCV viral activities |  |  |  |  |  | 
5 | COC(=O)c1c(/C=C/c2cc(OC)cc(OC)n2)cc(OC)c(CC=C(C)C)c1O [Compound 8x, methyl 2-hydroxy-3-isopentenyl-4-methoxy-6-[(E)-2-(4,6-dimethoxypyrid-2-yl)ethenyl]benzoate] | 0.65 µg/mL (≈ 1.57 µM) | 4.58 µg/mL (≈ 11.1 µM) | 1.87 µg/mL (≈ 4.52 µM) | 0.79 µg/mL (≈ 1.91 µM) | 79.8 ± 2.6% |  | 76.5 ± 1.8% |  |  |  | significantly stronger than the lead compound cajanine |  |  |  |  | 
6 | COC(=O)c1c(/C=C/c2cccc(OC)n2)cc(OC)c(CC=C(C)C)c1O [Compound 8y, methyl 2-hydroxy-3-isopentenyl-4-methoxy-6-[(E)-2-(6-methoxy-pyrid-2-yl)ethenyl]benzoate] | 2.14 µg/mL (≈ 5.58 µM) | 7.12 µg/mL (≈ 18.6 µM) | 4.33 µg/mL (≈ 11.3 µM) | 6.8 µg/mL (≈ 17.7 µM) | 49.8 ± 2.6% |  | 48.9 ± 6.5% |  |  |  |  |  |  |  |  | 
7 | COc1cc(/C=C/c2ccccc2)c(C(=O)OCC(O)CO)c(O)c1CC=C(C)C (centres unmarked) [Compound 9e, 2,3-dihydroxypropyl2-hydroxy-3-isopentenyl-4-methoxy-6-[(E)-styryl]benzoate] | 0.1 µg/mL (≈ 0.242 µM) | 0.21 µg/mL (≈ 0.509 µM) | 0.66 µg/mL (≈ 1.6 µM) | 0.73 µg/mL (≈ 1.77 µM) | 91.3 ± 2.4% | the strongest activities | 90.8 ± 4.3% | the strongest activities | stronger anti-HIV, HCV viral activities | stronger anti-HIV, HCV viral activities | significantly stronger than the lead compound cajanine |  |  |  |  | 
8 | COc1cc(/C=C/c2ccccc2)c(C(=O)NC2CCNCC2)c(O)c1CC=C(C)C [Compound 9f] | 0.31 µg/mL (≈ 0.737 µM) | 0.24 µg/mL (≈ 0.571 µM) | 6.09 µg/mL (≈ 14.5 µM) | 0.14 µg/mL (≈ 0.333 µM) | 58.9 ± 2.6% |  | 68.5 ± 4.9% |  |  |  |  |  |  |  |  | 
9 | COc1cc(/C=C/c2ccccc2)c(C(=O)Nc2ccccc2)c(O)c1CC=C(C)C [Compound 9g, N-phenyl-2-hydroxy-3-isopentenyl-4-methoxy-6-[(E)-styryl]benzamide] | 0.84 µg/mL (≈ 2.03 µM) | 1.59 µg/mL (≈ 3.85 µM) | 5.1 µg/mL (≈ 12.3 µM) | 0.79 µg/mL (≈ 1.91 µM) | 89.4 ± 2.3% | the strongest activities | 87.4 ± 1.9% | the strongest activities |  |  |  |  |  |  |  | 
10 | COc1cc(/C=C/c2ccccc2)c(C(=O)Nc2ccc(Cl)cc2)c(O)c1CC=C(C)C [Compound 9h, N-p-chlorophenyl2-hydroxy-3-isopentenyl-4-methoxy-6-[(E)-styryl]benzamide] | 0.47 µg/mL (≈ 1.05 µM) | 2.98 µg/mL (≈ 6.65 µM) | 1.33 µg/mL (≈ 2.97 µM) | 3.38 µg/mL (≈ 7.55 µM) | 84.5 ± 5.1% |  | 79.8 ± 2.1% |  |  |  | significantly stronger than the lead compound cajanine |  |  |  |  | 
11 | COc1cc(/C=C/c2ccccc2)cc(O)c1CC=C(C)C [Compound 10, Cajanine A] | 0.27 µg/mL (≈ 0.917 µM) | 0.69 µg/mL (≈ 2.34 µM) | 0.56 µg/mL (≈ 1.9 µM) | 0.21 µg/mL (≈ 0.713 µM) | 34.7 ± 9.8% |  | 69.9 ± 5.8% |  | stronger anti-HIV, HCV viral activities | stronger anti-HIV, HCV viral activities | significantly stronger than the lead compound cajanine |  |  |  |  | 
12 | COc1cc(/C=C/c2ccc(F)cc2)cc(O)c1CC=C(C)C [Compound 10a, 2-isopentenyl-3-methoxy-5-[(E)-(4′-fluorostyryl)]phenol] | > 0.69 µg/mL |  |  |  |  |  |  |  |  |  | significantly stronger than the lead compound cajanine | 6.32 µg/mL (≈ 20.2 µM) | 1.6 µg/mL (≈ 5.12 µM) | 2.02 µg/mL (≈ 6.47 µM) | 78.2 ± 4.1% | 79.8 ± 5.6%
13 | COc1cc(/C=C/c2ccccc2Cl)cc(O)c1CC=C(C)C [Compound 10b] | > 0.23 µg/mL |  |  |  |  |  |  |  | stronger anti-HIV, HCV viral activities | stronger anti-HIV, HCV viral activities |  | 6.38 µg/mL (≈ 19.4 µM) | 0.59 µg/mL (≈ 1.79 µM) | 0.3 µg/mL (≈ 0.912 µM) | 74.8 ± 5.2% | 74.6 ± 6.3%
14 | COc1ccc(/C=C/c2cc(O)c(CC=C(C)C)c(OC)c2)cc1 [Compound 10c, 2-isopentenyl-3-methoxy-5-[(E)-4′-methoxystyryl]phenol] | > 6.17 µg/mL | 2.35 µg/mL (≈ 7.24 µM) | 7.17 µg/mL (≈ 22.1 µM) | 0.35 µg/mL (≈ 1.08 µM) | 81.6 ± 2.6% | the strongest activities | 80.3 ± 6.2% | the strongest activities |  |  |  |  |  |  |  | 
15 | COc1cccc(OC)c1/C=C/c1cc(O)c(CC=C(C)C)c(OC)c1 [Compound 10d, 2-isopentenyl-3-methoxy-5-[(E)-2′,6′-dimethoxy-styryl]phenol] | > 6.17 µg/mL | > 2.05 µg/mL | 2.37 µg/mL (≈ 6.69 µM) | 1.05 µg/mL (≈ 2.96 µM) | 79.3 ± 5.4% | the strongest activities | 78.9 ± 6.1% | the strongest activities |  |  |  |  |  |  |  | 
16 | COc1cc(/C=C/c2ccccc2C)cc(O)c1CC=C(C)C [Compound 10e, 2-isopentenyl-3-methoxy-5-[(E)-2′-methylstyryl]phenol] | 1.92 µg/mL (≈ 6.23 µM) | 2.35 µg/mL (≈ 7.62 µM) | 1.9 µg/mL (≈ 6.16 µM) | 1.33 µg/mL (≈ 4.31 µM) | 65.3 ± 2.3% |  | 70.2 ± 8.1% |  |  |  | significantly stronger than the lead compound cajanine |  |  |  |  | 
